Where “and” joins values, the source holds several entries; their conditions need not be identical. Identical values can stand only once. Like-named read-outs stand apart in the source and are kept apart here.
What was measured:
mammalian NaVs = conditions: cited from earlier work
Excerpt: (§1) The first insect NaV gene (para) was cloned from Drosophila melanogaster. After that, lots of studies had cloned NaV genes from many arthropod pests and disease vectors, and most insects have only one para-like NaV gene. […] We speculated that μ-SPRTX-Hv2 is also a broad-spectrum insecticide but it is yet to be experimentally determined. In Blattella ger ...

NaV1.7 channel = conditions: physiological depolarizing voltages; cited from earlier work
Excerpt: as §1

insect CaVs = conditions: ω-hexatoxin-Hv1a; cited from earlier work
cockroaches [1] = conditions: cited from earlier work
meal beetles = conditions: cited from earlier work
rNaV1.8 = assay: Whole-cell patch-clamp of NaV1.8 in ND7/23 cells; format: cell-based, rat (r, as printed in rNaV1.8)
cockroaches [2] = assay: Lethal effect in cockroaches after injection of toxin, LD50 at 24 h; format: in vivo, cockroach
Experimental: Fifty-six cockroaches were randomly divided into eight groups (n = 7 in each group). Seven groups were used as experimental groups, to which 10 μL toxin solution (dissolved in saline) was injected between the fourth and fifth sternite, at single dose of 0.29, 0.53, 0.96, 1.74, 3.09, 5.56, or 10 nmol/g for each group. The eighth group was used as experimental control and was injected with 10 μL saline. Lethal effect was observed 24 h after injection. The LD50 value was determined by using the improved Karber’s method. For testing the toxicity of μ-SPRTX-Hv2 to mouse, toxin at a single dose of 1.7 nmol/g (7.0 µg/g) was injected intraperitoneally.

[3] = system: NaVs in cockroach DUM neurons; assay: Whole-cell patch-clamp of voltage-gated sodium channels in cockroach DUM neurons; format: cell-based
[4] = system: tetrodotoxin sensitive NaVs (TTX-S NaVs) in rat DRG neurons; format: cell-based
[5] = system: HVA CaVs in rat DRG neurons; assay: Whole-cell patch-clamp of HVA CaVs in rat DRG neurons; format: cell-based
hNaV1.5 = assay: Whole-cell patch-clamp of NaV1.5 in HEK293T cells; format: cell-based, human (h, as printed in hNaV1.5)
DUM HVA CaVs = assay: Whole-cell patch-clamp of HVA calcium channels in cockroach DUM neurons; format: cell-based
hNaV1.7 = assay: Whole-cell patch-clamp of NaV1.7 in HEK293T cells; format: cell-based, human (h, as printed in hNaV1.7)
mouse = conditions: 7.0 μg/g (1.7 nmol/g), intraperitoneal, single dose, n = 3
[6] = system: PaNaV1 and BgNaV1 channels; conditions: β-Diguetoxin-Dc1a; cited from earlier work

NC1=N[C@H](O)[C@H]2[C@H]3O[C@]4(O)O[C@@H]([C@@H](O)[C@@]2(N1)[C@@H]4O)[C@]3(O)CO [TTX, tetrodotoxin]
mode of action on mammalian NaVs (mammalian NaVs): physically blocking the ion conducting pathway

HWTX-IV: toxin acting on NaV1.7 channel
effect on steady-state activation curve (NaV1.7 channel): did not change the steady-state activation curve

ω-hexatoxin-Hv1a
effect on insect CaVs (insect CaVs): acting on the insect CaVs

brachyin
LD50 (cockroaches [1]): 1.02 pm/g of body weight | LD50 (meal beetles): 1.55 pm/g of body weight

μ-sparatoxin-Hv2 [μ-SPRTX-Hv2]
effect on NaV1.8 currents (rNaV1.8): did not affect | LD50 (cockroaches [2]; cockroaches, calculated): 11.7 μg/g of body weight | LD50 (cockroaches [2]; in vivo, ip): 3.6 nmol/g of body weight | LD50 (cockroaches [2]; synthetic toxin, cockroaches, 10 μL in saline injected between fourth and fifth sternite, single dose 0.29-10 nmol/g, n = 7 per group, 24 h after injection, improved Karber's method): 2.8 nmol/g of body weight | IC50 [3]: 0.834 µM and 0.718 µM | Ka (slope factor, steady-state activation) after toxin treatment [3]: 4.4 ± 0.4 mV | Kh (slope factor, steady-state inactivation) after toxin treatment [3]: −5.4 ± 0.3 mV | Va (steady-state activation) after toxin treatment [3]: −23.0 ± 3.7 mV | Vh (steady-state inactivation) after toxin treatment [3]: −38.7 ± 4.1 mV | association time constant (τon) [3]: 13.8 ± 1.7 s | block of currents across voltages (I–V relationship) [3]: blocked the currents at all voltage tested | effect on initial activation voltage, peak current voltage and reversal voltage [3]: did not affect the initial activation voltage, the peak current voltage and the reversal voltage | reversibility of block on washing by bath solution perfusion [3]: could not be washed off by bath solution perfusion | effect on TTX-S NaVs currents in rat DRG neurons [4]: did not affect the currents | effect on HVA CaVs currents in rat DRG neurons [5]: did not affect the currents | effect on NaV1.5 currents (hNaV1.5): did not affect | effect on DUM HVA CaVs currents (DUM HVA CaVs): did not affect the currents of DUM HVA CaVs | effect on NaV1.7 currents (hNaV1.7): did not affect | envenomation symptoms in mouse (mouse): no obvious envenomation symptoms were observed

β-Diguetoxin-Dc1a
selectivity between PaNaV1 and BgNaV1 [6]: showed selectivity between the highly conserved PaNaV1 and BgNaV1 channels

Reference: paper PMC6024679 (Toxins, 2018)
